The numbers were not newly measured in patent publication US6297235A, “Triazolopyridazine derivatives for treating anxiety and enhancing cognition” (Merck Sharp & Dohme Ltd., priority 1997, dated 2001), which cites them from elsewhere.

For data set [1] the following is noted: reported by McNamara and Skelton, Psychobiology, 21:101-108.
For data set [2] the following is noted: in vivo.

As for `COC(=O)c1cc2c(cn1)[nH]c1ccccc12` [β-CCM], the “spatial learning in the Morris watermaze” value in data set [1] is listed as “enhanced spatial learning”. The “proconvulsant or convulsant effect” value in data set [2] is listed as “proconvulsant or convulsant”.
